Experiment in all cases: inhibition of tumour cell growth, NCI panel, 48 h
The test system of experiment [1] is NCI-H460 lung.
Experiment [2] deals with ACHN renal.
The test system of experiment [3] is SNB-19 CNS.
Experiment [4] deals with EKVX NSCLC.
The test system of experiment [5] is K-562 leukemia.
The test system of experiment [6] is HCT-116 colon.
The test system of experiment [7] is SW-620 colon.
Experiment [8] has as its system MDA-N.
Experiment [9] relates to A549 NSCLC.
Experiment [10] relates to CCRF-CEM leukemia.

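96-well plates; 48 h exposure; 5 concentrations. Endpoints by linear interpolation between flanking doses. Not reached: highest tested concentration assigned. GI50: concentration for 50% inhibition of growth. At the TGI there is no net growth.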

For the molecule `CC[C@]12C=CCN3CCC4(c5cc(N=Nc6ccccc6)c(OC)cc5N(C)[C@H]4[C@@](O)(C(=O)OC)[C@@H]1OC(C)=O)[C@@H]32` (some centres undefined), the TGI in experiment [1] was 33.5 µM; in experiment [2], 30.1 µM; in experiment [3], 47.2 µM; in experiment [4] it was 34.2 µM; in experiment [5] it was 64.2 µM; in experiment [6], 31.2 µM. The results for the TGI in experiment [7], in experiment [8] and in experiment [9] were 58.7 µM, 35.8 µM and 40.9 µM, respectively.
Take `Nc1ccc2c(c1)C(=O)c1ccccc1-2`: the TGI in experiment [1], in experiment [2], in experiment [3], in experiment [4], in experiment [5] and in experiment [6] was above 100 µM in each case. Further, the TGI in experiment [7], in experiment [10] and in [9] was above 100 µM each time.
Consider `N#Cc1c(Nc2ccc(F)cc2)[n+]([O-])c2ccc(Cl)cc2[n+]1[O-]`, for which the TGI in [1] is 7.97 µM; in experiment [3], above 100 µM; in [5], 8.56 µM; in [6], above 100 µM; in [7], above 100 µM; in experiment [10], above 100 µM. In addition, the results for the TGI in experiment [8] and in experiment [9] were above 100 µM and 35.9 µM, respectively.
Regarding `O=C(c1ccccc1)c1c(C(F)(F)F)n([O-])c2ccccc2[n+]1=O`, the TGI in [1] is 5.72 µM; in [3], 3.23 µM; in [4], 6.04 µM; in experiment [6] it was above 100 µM; in experiment [7] it was above 100 µM; in [10], above 100 µM.
For `CC1(C)O[C@@H](CO)[C@H]([C@@]23OC[C@H]4OC(C)(C)OC4[C@@H]2OC(C)(C)O3)O1` (some centres undefined), the TGI in experiment [1], in experiment [2], in [3], in experiment [4], in experiment [5] and in experiment [6] was above 100 µM in each case. The TGI in experiment [7], in [8] and in experiment [9] was above 100 µM throughout.
In the case of `O=C(c1ccc2ccccc2c1)C1S(=O)(=O)OCCOS1(=O)=O`, the TGI in [1], in experiment [2], in experiment [3], in experiment [4], in experiment [5] and in experiment [6] was above 100 µM each time. The TGI in [10], in [8] and in [9] was above 100 µM throughout.
As for `O=C(O)C(CCc1ccccn1)c1ccccc1` (centres undefined), the TGI in experiment [1], in experiment [2], in [3], in experiment [4], in experiment [5] and in experiment [6] was above 100 µM throughout. For the same molecule, the TGI in experiment [7], in [8] and in [9] was above 100 µM in each case.
For `CCOC(=O)c1cc2c(OC(C)=O)ccc(OC(C)=O)c2s1`, the TGI is 22.2 µM in experiment [1]; 2.98 µM in experiment [2]; 19.9 µM in experiment [3]; 7.73 µM in experiment [4]; 9 µM in [6]; 5.29 µM in experiment [10]. The TGI in experiment [9] came out at 28.6 µM.
Regarding `Cc1cc2ccccc2c[n+]1CC(O)C[n+]1cc2ccccc2cc1C`, the TGI in experiment [1], in experiment [2], in experiment [3], in [4], in experiment [5] and in [6] was above 100 µM in each case. Moreover, the TGI in [7], in experiment [8] and in experiment [9] was above 100 µM throughout.
Consider `O=S1(=O)NNC(=NCc2ccc(Cl)cc2)c2ccccc21`, for which the TGI in experiment [1], in experiment [2], in experiment [3], in experiment [4], in experiment [5] and in experiment [6] was above 100 µM each time. For the same molecule, the TGI in experiment [7], in [10] and in experiment [9] was above 100 µM throughout.
Consider `c1ccc(CCN2CCCCCC2)nc1`, for which the TGI in experiment [1], in [2], in experiment [3], in [4], in experiment [5] and in experiment [6] was above 100 µM each time. Moreover, the TGI in [7], in [10] and in [9] was above 100 µM each time.
For the molecule `CN(CCc1ccc(Cl)c(Cl)c1)[C@H]1CCCC[C@H]1N1CCCC1`, the TGI in [2], in experiment [3], in experiment [4], in experiment [5], in [6] and in experiment [7] was above 100 µM each time. Besides, the TGI in experiment [8] and in experiment [9] was above 100 µM in each case.
Turning to `Cc1cc(Cc2c(F)c(F)c(Cc3cc(C)no3)c(F)c2F)on1`, the TGI in experiment [2], in experiment [3], in experiment [4], in experiment [5], in experiment [6] and in experiment [10] was above 100 µM each time. The TGI is above 100 µM in experiment [8] and 25.8 µM in experiment [9].
As for `N#Cc1c(NC(=O)c2ccccc2)sc2c1CCC(=O)C2`, the GI50 in experiment [1] was 2.22 µM; in experiment [2], 0.906 µM; in [3] it was 3.48 µM; in experiment [4] it was 2.33 µM; in experiment [5] it was 0.467 µM; in [7] it was 0.524 µM. Besides, the results for the GI50 in experiment [10] and in experiment [9] were 0.43 µM and 6.7 µM, respectively. Further, the TGI in experiment [1] is above 100 µM; in experiment [2], 2.3 µM; in [3], above 100 µM; in experiment [4], 10.4 µM; in [5], above 100 µM; in experiment [7], 3.69 µM. In addition, the TGI in [10] and in [9] was above 100 µM throughout.
As for `NC(Cc1cc(I)c(O)c(I)c1)C(=O)O` (centres undefined), the TGI in [1] is above 349 µM; in [3], above 500 µM; in [4], above 316 µM; in [5] it was above 500 µM; in [6], above 500 µM; in experiment [7] it was above 500 µM. Besides, the TGI in experiment [10] and in experiment [9] was above 500 µM in each case.
For `OC(c1ccc(Cl)cc1)(c1ccc(Cl)cc1)C(O)(c1ccc(Cl)cc1)c1ccc(Cl)cc1`, the GI50 in [1] was 3.11 µM; in experiment [4], 3.14 µM; in experiment [5], 3.56 µM; in experiment [6], 2.02 µM; in [7], 3.24 µM; in [10] it was 3.41 µM. The TGI in experiment [1], in [4], in experiment [5], in experiment [6], in [7] and in [10] was above 100 µM in each case.
In the case of `CS(=O)(=O)OCCN1CCC2(CC1)SSC1(CCN(CCOS(C)(=O)=O)CC1)S2`, the TGI in [1], in experiment [2], in [3], in experiment [5], in [6] and in [7] was above 100 µM in each case. Moreover, the TGI in [8] and in [9] was above 100 µM each time.
With `COC(=O)c1ccc(-c2nc(C#N)c(N)o2)cc1`, the TGI in [1], in experiment [2], in experiment [3], in experiment [4], in experiment [5] and in experiment [6] was above 100 µM throughout. The TGI in experiment [7], in experiment [10] and in experiment [9] was above 100 µM in each case.
In the case of `CC1(C)COC(c2cccc(C3=NC(C)(C)CO3)c2Br)=N1`, the TGI in [1], in experiment [2], in experiment [3], in experiment [4], in experiment [5] and in experiment [6] was above 100 µM each time. Moreover, the TGI in experiment [7] and in [9] was above 100 µM each time.
In the case of `CCN(CC)CCO/N=C1\CC[C@H]2[C@@H]3CC=C4C[C@@H](O)CC[C@]4(C)[C@H]3CC[C@]12C`, the TGI in experiment [1] is 29.8 µM; in experiment [2], above 100 µM; in experiment [3], 98.5 µM; in [4], above 100 µM; in experiment [5], 30.7 µM; in experiment [6], 30.2 µM. Besides, the TGI turned out to be 30.4 µM in [7] and 58.1 µM in experiment [8].
Regarding `NC(N)=N/N=C/c1c(-c2ccc([N+](=O)[O-])cc2)nc2sccn12`, the TGI in [1] was 4.03 µM; in experiment [2], 7.27 µM; in experiment [3] it was 2.74 µM; in experiment [4], 3.44 µM; in experiment [5], 2.84 µM; in experiment [6], 3.05 µM. The molecule further came in with a TGI in experiment [9] of 3.34 µM.
In the case of `CC(C)CCC[C@@H](C)[C@H]1CC[C@H]2[C@@H]3CC=C4C[C@@H](OC(=O)c5cccc6c(=O)c7ccccc7[nH]c56)CC[C@]4(C)[C@H]3CC[C@]12C`, the TGI in experiment [2], in [3], in [4], in [5], in [7] and in experiment [8] was above 75 µM in each case. The molecule further registered a TGI in experiment [9] above 75 µM.
With `CCOC(=O)c1ccc2nc(NC(=O)COC(=O)CSc3nc(C)cc(C)n3)sc2c1`, the TGI in [1] was above 100 µM; in [2] it was above 100 µM; in experiment [3], above 100 µM; in [4], 62 µM; in [5], above 100 µM; in experiment [6], above 100 µM. Moreover, the TGI in experiment [7] is above 100 µM; in [10] it was 15.5 µM; in experiment [9] it was above 100 µM.
Consider `O=C(/C=C/c1ccc(-c2ccccc2[N+](=O)[O-])o1)NCc1ccc(C(=O)NCCc2ccccc2)cc1`, for which the TGI in experiment [1], in [2], in [3], in experiment [4], in experiment [5] and in [6] was above 100 µM each time. Moreover, the TGI in [7] and in experiment [9] was above 100 µM each time.
Turning to `O=c1[nH]c(=O)n(C2OC(COP(=O)(O)OP(=O)(O)O)C(O)C2O)cc1F` (centres undefined), the TGI is 12.7 µM in experiment [1]; above 44.7 µM in experiment [2]; above 50 µM in experiment [3]; 42.5 µM in [4]; above 50 µM in [5]; above 17 µM in experiment [6]. Further, the TGI in experiment [7] is above 50 µM; in experiment [10], above 50 µM; in experiment [9], above 41.4 µM.
`COc1ccc(/C=C/c2cc(O)cc(OC)c2)cc1`: the TGI in [1], in experiment [2], in experiment [3], in [4], in experiment [5] and in experiment [6] was above 100 µM in each case. Moreover, the TGI in experiment [7] and in experiment [9] was above 100 µM throughout.
In the case of `S=C(N/N=C\C=N/NC(=S)N1CCCCCC1)N1CCCCCC1`, the TGI in experiment [1], in experiment [2], in [3], in experiment [4], in experiment [5] and in [6] was above 100 µM throughout. The TGI in [7], in experiment [8] and in experiment [9] was above 100 µM in each case.
For the molecule `COc1cc(C2C3=C(CCC3=O)Oc3cc4c(cc32)OCO4)cc(OC)c1OC` (centres undefined), the TGI in [1] is above 100 µM; in experiment [2], 62.3 µM; in experiment [3], above 100 µM; in [4], above 100 µM; in experiment [5], above 100 µM; in experiment [6], above 100 µM. Also, the TGI in experiment [7], in experiment [10] and in [9] was above 100 µM in each case.
On to `COc1ccc(C2(c3ccc(OC)cc3)OC(=O)c3cccc4cccc2c34)cc1`, for which the TGI in [1] was above 100 µM; in [2], above 100 µM; in experiment [3], above 100 µM; in experiment [4], 29 µM; in experiment [5] it was above 100 µM; in [6], above 100 µM. For the same molecule, the TGI in experiment [7] is above 100 µM; in [10], 7.71 µM; in [9] it was above 100 µM.
With `COc1cc2cc(C(=O)N3CC(CCl)c4c3cc(N)c3ccccc43)[nH]c2cc1OCCN(C)C` (centres undefined), the TGI in experiment [1] was 8.68 µM; in experiment [4] it was 10.7 µM; in experiment [5], 1.12 µM; in experiment [6], 0.623 µM; in experiment [10], below 0.005 µM; in experiment [9] it was 6 µM.

The record behind these values is PubChem BioAssay (NCI).
